Measurements published in the supplement of paper PMC5908809.

Tests used:
[1] = system: normal NK cells expanded with K562-aAPC; assay: percent inhibition of viability; higher = more inhibition; conditions: 72 h, IL-2 2.5 ng/mL
Procedure: (§1)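 Drug sensitivity and resistance testing on K562-aAPC-expanded normal NK cells: 5 concentrations (10-fold steps over a 10,000-fold range), 72 h at 37 °C, viability by CellTiter-Glo normalised to DMSO and benzethonium chloride controls; DSS from the fitted curve.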

DERL-7 (IL-2 2.5 ng/mL) [2] = assay: as above; conditions: 72 h
IMC-1 (IL-2 20 ng/mL) [3] = assay: as above; conditions: 72 h
KAI3 (IL-2 2.5 ng/mL) [4] = assay: as above; conditions: 72 h
KHYG-1 (IL-2 2.5 ng/mL) [5] = assay: as above; conditions: 72 h
NK-92 (IL-2 2.5 ng/mL) [6] = assay: as above; conditions: 72 h
NK-YS (IL-2 2.5 ng/mL) [7] = assay: as above; conditions: 72 h
NKL (IL-2 2.5 ng/mL) [8] = assay: as above; conditions: 72 h
SNK-6 (IL-2 2.5 ng/mL) [9] = assay: as above; conditions: 72 h
YT (IL-2 2.5 ng/mL) [10] = assay: as above; conditions: 72 h
[11] = system: normal primary NK cells, pool 1 (3 donors) (IL-2 2.5 ng/mL); assay: as above; conditions: 72 h
[12] = system: normal primary NK cells, pool 1 (3 donors), resting (IL-2 0 ng/mL); assay: as above; conditions: 72 h
[13] = system: normal primary NK cells, pool 2 (3 donors) (IL-2 2.5 ng/mL); assay: as above; conditions: 72 h
[14] = system: normal primary NK cells, pool 3 (3 donors) (IL-2 2.5 ng/mL); assay: as above; conditions: 72 h
[15] = system: normal NK cells expanded with K562-aAPC; assay: drug sensitivity score (DSS) (DSS units); higher = more sensitive; extreme values may be limits of the assay; conditions: 72 h; IL-2 2.5 ng/mL
Procedure: as §1

DERL-7 (IL-2 2.5 ng/mL) [16] = assay: as above; conditions: 72 h
IMC-1 (IL-2 20 ng/mL) [17] = assay: as above; conditions: 72 h
KAI3 (IL-2 2.5 ng/mL) [18] = assay: as above; conditions: 72 h
KHYG-1 (IL-2 2.5 ng/mL) [19] = assay: as above; conditions: 72 h
NK-92 (IL-2 2.5 ng/mL) [20] = assay: as above; conditions: 72 h
NK-YS (IL-2 2.5 ng/mL) [21] = assay: as above; conditions: 72 h
NKL (IL-2 2.5 ng/mL) [22] = assay: as above; conditions: 72 h
SNK-6 (IL-2 2.5 ng/mL) [23] = assay: as above; conditions: 72 h
YT (IL-2 2.5 ng/mL) [24] = assay: as above; conditions: 72 h
[25] = system: normal primary NK cells, pool 1 (3 donors) (IL-2 2.5 ng/mL); assay: as above; conditions: 72 h
[26] = system: normal primary NK cells, pool 1 (3 donors), resting (IL-2 0 ng/mL); assay: as above; conditions: 72 h
[27] = system: normal primary NK cells, pool 2 (3 donors) (IL-2 2.5 ng/mL); assay: as above; conditions: 72 h
[28] = system: normal primary NK cells, pool 3 (3 donors) (IL-2 2.5 ng/mL); assay: as above; conditions: 72 h

Nc1cc(C(F)(F)F)c(-c2cc(N3CCOCC3)nc(N3CCOCC3)n2)cn1 [Buparlisib] (max concentration tested 10000 nM)
percent inhibition of viability [%]
Conditions	1 nM	10 nM	100 nM	1000 nM	10000 nM
DERL-7 (IL-2 2.5 ng/mL) [2]	-4.02	6.38	3.7	42.2	89.9
IMC-1 (IL-2 20 ng/mL) [3]	-4.05	-1.36	2.62	-18.8	99.3
KAI3 (IL-2 2.5 ng/mL) [4]	-7.19	-5.48	-0.56	43	74.8
KHYG-1 (IL-2 2.5 ng/mL) [5]	-1.22	-0.26	7	57.9	101
NK-92 (IL-2 2.5 ng/mL) [6]	7.02	-3.67	15.7	52.4	96.2
NK-YS (IL-2 2.5 ng/mL) [7]	-0.4	-0.39	9.67	55	80
NKL (IL-2 2.5 ng/mL) [8]	-8.01	-1.84	8.57	69.1	73.8
SNK-6 (IL-2 2.5 ng/mL) [9]	33.1	31.2	38.8	73.2	92.7
YT (IL-2 2.5 ng/mL) [10]	-0.5	0.16	7.95	41.5	100
[1]	-3.33	-1.98	1.34	25.6	67
[11]	-1.97	-13.5	-2.5	4.32	28.6
[12]	6.15	-7.57	-1.1	2.62	26.9
[13]	-19.2	-7.45	6.25	8.14	26.6
[14]	-11.4	-7.58	0	0.01	19.4

Conditions	drug sensitivity score
DERL-7 (IL-2 2.5 ng/mL) [16]	9.98
IMC-1 (IL-2 20 ng/mL) [17]	4.51
KAI3 (IL-2 2.5 ng/mL) [18]	9.35
KHYG-1 (IL-2 2.5 ng/mL) [19]	12.6
NK-92 (IL-2 2.5 ng/mL) [20]	12.2
NK-YS (IL-2 2.5 ng/mL) [21]	11.7
NKL (IL-2 2.5 ng/mL) [22]	14
SNK-6 (IL-2 2.5 ng/mL) [23]	23.7
YT (IL-2 2.5 ng/mL) [24]	10.4
[15]	7.15
[25]	1.89
[26]	1.48
[27]	1.72
[28]	0.55

CS(=O)(=O)OCCCCOS(C)(=O)=O [Busulfan] (max concentration tested 100000 nM)
percent inhibition of viability [%]
Conditions	10 nM	100 nM	1000 nM	10000 nM	100000 nM
DERL-7 (IL-2 2.5 ng/mL) [2]	-0.3	0.71	-1.86	-6.29	37.3
IMC-1 (IL-2 20 ng/mL) [3]	-7.58	1.98	-0.95	5.86	97.7
KAI3 (IL-2 2.5 ng/mL) [4]	-3.8	4.61	-6.45	7.92	92.1
KHYG-1 (IL-2 2.5 ng/mL) [5]	-5.97	2.86	-2.89	5.78	101
NK-92 (IL-2 2.5 ng/mL) [6]	-12.9	1.55	8.88	-9.97	98.6
NK-YS (IL-2 2.5 ng/mL) [7]	-7.3	-2.96	-5.68	2.67	93.2
NKL (IL-2 2.5 ng/mL) [8]	-14.8	-1.78	-0.6	5.56	99.4
SNK-6 (IL-2 2.5 ng/mL) [9]	6.87	18.8	18.7	29.4	98
YT (IL-2 2.5 ng/mL) [10]	-5.22	1.87	-2.46	-4.04	47.7
[1]	-2.86	1.34	1.8	12.1	11.6
[11]	0.77	-7.48	-4.93	-16	-3.43
[12]	9.92	-5.43	4.09	-28.6	-11.5
[13]	-6.89	-5.87	7.32	-4.08	50.9
[14]	0.71	-2.78	10.5	-3.81	35.4

Conditions	drug sensitivity score
DERL-7 (IL-2 2.5 ng/mL) [16]	1.44
IMC-1 (IL-2 20 ng/mL) [17]	6.28
KAI3 (IL-2 2.5 ng/mL) [18]	6.36
KHYG-1 (IL-2 2.5 ng/mL) [19]	6.48
NK-92 (IL-2 2.5 ng/mL) [20]	4.82
NK-YS (IL-2 2.5 ng/mL) [21]	5.53
NKL (IL-2 2.5 ng/mL) [22]	6.32
SNK-6 (IL-2 2.5 ng/mL) [23]	8.82
YT (IL-2 2.5 ng/mL) [24]	2.18
[15]	0.67
[25]	0
[26]	0
[27]	2.38
[28]	1.42
